# Results as given in publication PMC7241010, “In Vivo and In Vitro Study of N-Methyltaurine on Pharmacokinetics and Antimuscle Atrophic Effects in Mice” (ACS Omega, 2020).
# Where two headings read alike, the source gives them in different places.
# Key:
# [1] = system: C2C12 myotubes; assay: Dex-induced myotube atrophy in C2C12 cells (myotube diameter); type: cell-based, mouse; conditions: 24 h
# Method: To explore the beneficial effect of NMT against skeletal muscle atrophy in mice, we investigated its protective effect using cultures of C2C12 myotubes.
# C2C12 mouse myoblasts were purchased from ATCC (American Type Culture Collection) and were cultured in DMEM containing 10% fetal bovine serum. Cell lines were not tested for mycoplasma contamination in the present study. To induce differentiation of the myotubes, cells were cultured in DMEM containing 2% fetal bovine serum for 1 week. After differentiation, cells were treated with Dex (final concentration, 50 μM) with or without NMT.[28] Myotube diameter was measured from microscopic images taken after treatment with Dex.
# [2] = system: ICR mice; assay: Dexamethasone-induced muscle atrophy model in ICR mice; type: in vivo, mouse
# Method: Next, to investigate the effect of NMT on skeletal muscle atrophy, a mouse atrophy model induced by Dex was employed[41] (Figure 5). Mice were administered with Dex daily (i.p., 10 mg/kg body weight) and maintained on drinking water either with no addition or containing 0.5% NMT.
# To induce muscle atrophy in ICR mice, Dex was suspended in saline (10 mg/mL), and the mixture was intraperitoneally (i.p.) injected at 10 mg/kg body weight once a day for 10 days.[41] Body weight was monitored daily. Then, mice were euthanized by cervical dislocation, and muscles were isolated from the mice. The isolated tissue was immediately froze in liquid nitrogen and stored at −80 °C.
# [3] = Pharmacokinetics and oral bioavailability of NMT in mice (plasma NMT by HPLC); type: in vivo, mouse; conditions: for AUC(0-t): read-out: AUC0–180min (converted)
# Method: To study the pharmacokinetic parameters and the oral bioavailability of NMT, we tested the serum concentration of NMT after p.o. or i.v. injection of NMT (Figure 2). Biological fluid was sampled following the injection of NMT. […] Oral bioavailability is defined as the fraction of the dose that reaches the systemic circulation. Blood samples were collected at 10 to 180 min after NMT administration and then examined by HPLC.
# All experimental procedures were approved by the Institutional Animal Care and Use Committee of the Fukui Prefectural University. Three-month-old male ICR mice were used for this study. […] Blood samples were collected from the facial vein (for i.v. injection) or the tail vein (for p.o. injection) at 10, 20, 30, 60, 120, and 180 min after NMT administration.
# (§1) Plasma samples were mixed with an equal volume of 5% sulfosalicylic acid (SSA) containing the internal standard chemical sarcosine (0.1 mM). Tissues in 10 volumes of 5% SSA containing an internal control were homogenized using a Polytron homogenizer. Samples were centrifuged, and the supernatant was filtered with 0.45 μm filters and then neutralized with NaHCO3.
# (§2) NMT was measured by HPLC after derivatization with 9-fluorenylmethyloxycarbonyl chloride (FMOC-Cl) according to a previous report with brief modification.[49] First, equal volumes of o-phthalaldehyde (OPA) reagent (5 mM OPA, 23 mM 3-mercaptopropionic acid, 10 mM boric acid, pH 10.4) was added to acid-extracted samples and incubated at room temperature for 1 min for the derivatization of the primary amine. Then, 1 volume of FMOC-Cl reagent (3 mM FMOC-Cl in acetone) was added to the mixture and incubated for additional 1 min for the derivatization of residual secondary amine. After dilution with HPLC mobile phase buffer A (10 mM potassium phosphate, pH 7.3), samples were subjected to HPLC analysis performed on an UltiMate 3000 rapid separation binary system (Thermo Fisher, USA) or Prominence HPLC system (Shimadzu, Japan). Samples were injected into a ZORBAX Eclipse Plus C18 column (Agilent, USA). Mobile phases A (10 mM potassium phosphate, pH 7.3) and B (acetonitrile) were used. The column oven temperature was set at 40 °C. The flow rate of the mobile phase was 1.5 mL/min. The gradient of the mobile phase was increased from 2 to 88% buffer B (from 0.84 to 11.9 min) and was kept at 100% buffer B for 3 min followed by 2% for 15 min. N-Methyltaurine derivatized by FMOC-Cl was monitored by a fluorescence detector (excitation: 266 nm, emission: 305 nm) and diode array detector (Shimadzu).
# Pharmacokinetic parameters were calculated by using R (Package “PK”, ver. 1.3-4).
# [4] = Tissue distribution of NMT after 0.5% NMT in drinking water; type: in vivo, mouse; conditions: mice
# Method: To evaluate the tissue distribution of NMT in mice after administration in the drinking water, the concentration of NMT was measured in tissues and serum 4 days after the original administration (Figure 3). The tissue concentration of NMT was analyzed by HPLC. NMT was widely distributed in the tissues of mice, including in brain, liver, kidney, heart, and muscles. The tissue concentration of NMT was much higher than that of serum concentration, with one exception, the skin (Figure 3).
# To measure NMT in the serum and tissues after long-term treatment with NMT, NMT dissolved in the drinking water (0.5%) was given to mice for 4 days. After that, mice were anesthetized by medetomidine (0.3 mg/kg body weight; FUJIFILM Wako Pure Chemical), butorphanol (5 mg/kg body weight; FUJIFILM Wako Pure Chemical), and midazolam (4 mg/kg body weight; FUJIFILM Wako Pure Chemical), and then blood and tissues were collected. Tissues were kept in −80 °C until use.
# as §1, §2
# [5] = system: Atrogin-1 and MuRF1; assay: Gene expression of Atrogin-1 and MuRF1 in C2C12 myotubes (qRT-PCR); type: cell-based, mouse; conditions: C2C12 myotubes treated with Dex and NMT
# Method: We tested whether these ubiquitin ligases are involved in the suppressive effect of NMT against muscle atrophy in the C2C12 myotube.
# Total RNA was isolated from C2C12 cells using Sepasol Super G (Nacalai Tesque, Kyoto, Japan), and cDNA was generated by using ReverTra Ace (Toyobo, Osaka, Japan). Quantitative RT-PCR analysis was performed using Applied Biosystems StepOne (Applied Biosystems) with THUNDERBIRD SYBR qPCR Mix (Toyobo). The primers used are as follows: Atrogin-1 forward: 5′-TTCAG CAGCC TGAAC TACGA-3′, reverse: 5′-AGTAT CCATG GCGCT CCTTC-3′. MuRF1 forward: 5′-GCGTG ACCAC AGAGG GTAAA-3′, reverse: 5′-CTCTG CGTCC AGAGC GTG-3′. GAPDH forward: 5′-GCCGG TGCTG AGTAT GTCGT-3′, reverse: 5′-CCCTT TTGGC TCCAC CCTT-3′.
# [6] = system: taurine uptake in brain slices; conditions: cited from earlier work
# [7] = system: C2C12 myotubes; conditions: in vitro exposure to dexamethasone; cited from earlier work
# [8] = rats; cited from earlier work
# [9] = system: taurine transport system; conditions: human intestine cells, cited from earlier work
# [10] = drinking water containing 0.5% NMT for 4 days, average
# [11] = Dex i.p. 10 mg/kg daily for 10 days, 0.5% NMT in drinking water
smiles,measurement,setting,value
"C[C@@H]1C[C@H]2[C@@H]3CCC4=CC(=O)C=C[C@]4(C)[C@@]3(F)[C@@H](O)C[C@]2(C)[C@@]1(O)C(=O)CO [Dex, dexamethasone, reference compound]",effect on myotube width,[1]; Dex 50 μM,reduced the width of the myotube
same,effect on body weight,[2]; Dex i.p. 10 mg/kg body weight daily,caused a continuous loss of body weight
"CNCCS(=O)(=O)O [NMT, N-Methyltaurine]",AUC(0-t),"[3]; male, ICR, mouse, iv, i.v. 0.5 mg/kg BW, plasma",900 ng·h/mL
same,bioavailability,"[3]; male, ICR, mouse, plasma, oral, 0.5 mg/kg, p.o. 0.5 mg/kg BW vs i.v. 0.5 mg/kg BW, read-out: bioavailability",96%
same,bioavailability,"[3]; male, ICR, mouse, plasma, oral, 5 mg/kg BW, p.o. 5 mg/kg BW vs i.v. 0.5 mg/kg BW, read-out: bioavailability",58%
same,AUC(0-t),"[3]; male, ICR, mouse, po, p.o. 0.5 mg/kg BW, plasma",865 ng·h/mL
same,AUC(0-t),"[3]; male, ICR, mouse, po, p.o. 5 mg/kg BW, plasma",5250 ng·h/mL
same,bioavailability,"[3]; p.o. 0.5 mg/kg BW vs i.v. 0.5 mg/kg BW, 0.5 mg/kg",96.1%
same,Kp at 4 days,"[4]; ICR, mouse, 0.5 % in drinking water, oral NMT, various tissues, skin is an exception, read-out: tissue NMT relative to serum concentration of NMT",10 to 100
same,"Tissue NMT, brain",[4]; [10],0.84 nmol/g wet
same,"Tissue NMT, heart",[4]; [10],3.5 nmol/g wet
same,"Tissue NMT, kidney",[4]; [10],0.39 nmol/g wet
same,"Tissue NMT, liver",[4]; [10],0.50 nmol/g wet
same,"Tissue NMT, muscle",[4]; [10],0.17 nmol/g wet
same,"Tissue NMT, serum",[4]; [10],0.033 nmol/g wet
same,"Tissue NMT, skin",[4]; [10],0.019 nmol/g wet
same,effect on Dex-induced decline in myotube width,[1]; Dex 50 μM + NMT 20 mM,prevented the decline in myotube width
same,effect on Dex-induced Atrogin-1 and MuRF1 gene expression,[5],did not act by downregulating those genes
same,effect on Dex-induced loss in wet weight of gastrocnemius muscle,[2]; [11],attenuated Dex-induced loss in wet weight
same,effect on Dex-induced loss in wet weight of tibial anterior muscle,[2]; [11],attenuated Dex-induced loss in wet weight
same,effect on Dex-induced body weight loss,"[2]; Dex i.p. 10 mg/kg daily, 0.5% NMT in drinking water",attenuated body weight loss
same,effect on taurine uptake,[6],inhibits taurine uptake
NCCS(=O)(=O)O [taurine],effect on Dex-induced muscle atrophy in vitro,[7],attenuates muscle atrophy
same,oral bioavailability,[8],~100%
same,concentration at which transport activity is almost saturated,[9],~50 µM
same,Km,[9]; read-out: Km of taurine transport,4.8 µM
